Test results as given in patent publication US10407422B2, “Triazolopyridine inhibitors of myeloperoxidase” (priority 2015, dated 2019).

Tests used:
myeloperoxidase (MPO) [1] = target: T1, myeloperoxidase (MPO) (Homo sapiens (Human), UniProt P05164); experiment: MPO peroxidation assay (Amplex Red assay); format: biochemical; conditions: potency range class
Procedure, shortened: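 Human MPO at 200 pM with 40 nM H2O2 preincubated 10 min at room temperature with inhibitor in 100 mM KPi pH 7.4. Reaction started with Amplex Red mixture (200 μM Amplex Red, 10 mM H2O2); resorufin fluorescence (Ex 535, Em 590 nm) read kinetically for 15 min. IC50 fitted from slopes over 180-540 s.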

myeloperoxidase (MPO) [2] = target: T1, myeloperoxidase (MPO); experiment: MPO chlorination assay (APF assay); format: biochemical; conditions: potency range class
Procedure, shortened: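 Human MPO (200 pM) preincubated 10 min at room temperature with inhibitor and 120 mM NaCl in 100 mM KPi pH 7.4. Reaction started with APF plus 10 μM H2O2, and hypochlorite-generated fluorescein read kinetically (ex 485/em 535 nm) for 3 min. IC50 from linear-phase slopes fitted to a four-parameter equation.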

T1 sequence (P05164 49-745): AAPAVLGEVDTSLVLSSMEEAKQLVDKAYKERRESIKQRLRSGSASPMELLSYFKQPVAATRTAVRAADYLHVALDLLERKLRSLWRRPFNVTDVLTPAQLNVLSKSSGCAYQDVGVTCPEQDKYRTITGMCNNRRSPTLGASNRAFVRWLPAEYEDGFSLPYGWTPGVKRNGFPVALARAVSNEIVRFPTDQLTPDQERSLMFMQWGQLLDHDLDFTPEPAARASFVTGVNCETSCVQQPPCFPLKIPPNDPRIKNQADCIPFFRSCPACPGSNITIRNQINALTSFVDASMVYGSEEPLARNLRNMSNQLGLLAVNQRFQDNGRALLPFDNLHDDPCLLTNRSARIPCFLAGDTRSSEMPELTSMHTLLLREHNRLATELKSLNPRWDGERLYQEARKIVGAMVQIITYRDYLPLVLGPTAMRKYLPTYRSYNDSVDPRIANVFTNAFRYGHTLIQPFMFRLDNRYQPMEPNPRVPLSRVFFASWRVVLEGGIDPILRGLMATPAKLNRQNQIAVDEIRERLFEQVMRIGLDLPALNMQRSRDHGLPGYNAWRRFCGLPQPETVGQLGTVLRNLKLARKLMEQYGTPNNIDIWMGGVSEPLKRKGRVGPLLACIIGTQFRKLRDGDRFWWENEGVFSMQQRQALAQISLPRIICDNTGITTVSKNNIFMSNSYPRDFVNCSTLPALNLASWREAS

Compound: Nc1cc(Cc2cnn(-c3ccccc3)n2)c2nn[nH]c2n1 [Example 6, 7-((2-Phenyl-2H-1,2,3-triazol-4-yl)methyl)-3H-[1,2,3]triazolo[4,5-b]pyridin-5-amine]
- IC50 (myeloperoxidase (MPO) [1]): 101 to 999 nM
- IC50 (myeloperoxidase (MPO) [2]): 101 to 999 nM

Compound: Cc1nnc([C@@H]2C[C@@H](Oc3cccc(Cn4cc(Cc5cc(N)nc6[nH]nnc56)cn4)c3)CN2)o1 [Example 246, 7-({1-[(3-{[(3R,5S)-5-(5-Methyl-1,3,4-oxadiazol-2-yl)pyrrolidin-3-yl]oxy}phenyl)methyl]-1H-pyrazol-4-yl}methyl)-3H-[1,2,3]triazolo[4,5-b]pyridin-5-amine]
- IC50 (myeloperoxidase (MPO) [1]): 1000 to 10000 nM
- IC50 (myeloperoxidase (MPO) [2]): 1000 to 10000 nM

Compound: C[C@@H]1CN(c2cccc(Cn3cc(Cc4cc(N)nc5[nH]nnc45)cn3)c2)C[C@H](C)N1 [Example 221, 7-{[1-({3-[cis-3,5-Dimethylpiperazin-1-yl]phenyl}methyl)-1H-pyrazol-4-yl]methyl}-3H-[1,2,3]triazolo[4,5-b]pyridin-5-amine]
- IC50 (myeloperoxidase (MPO) [1]): 1 to 100 nM
- IC50 (myeloperoxidase (MPO) [2]): 1 to 100 nM

Compound: Nc1cc(Cc2cnn(Cc3cccnc3)c2)c2nn[nH]c2n1 [Example 102, 7-((1-(Pyridin-3-ylmethyl)-1H-pyrazol-4-yl)methyl)-3H-[1,2,3]triazolo[4,5-b]pyridin-5-amine]
- IC50 (myeloperoxidase (MPO) [1]): 1 to 100 nM
- IC50 (myeloperoxidase (MPO) [2]): 101 to 999 nM

Compound: COC(=O)CNCc1cccc(Oc2cccc(Cn3cc(Cc4cc(N)nc5[nH]nnc45)cn3)c2)c1 [Example 232, Methyl 2-({[3-(3-{[4-({5-amino-3H-[1,2,3]triazolo[4,5-b]pyridin-7-yl}methyl)-1H-pyrazol-1-yl]methyl}phenoxy)phenyl]methyl}amino)acetate]
- IC50 (myeloperoxidase (MPO) [1]): 1 to 100 nM
- IC50 (myeloperoxidase (MPO) [2]): 101 to 999 nM

Compound: Nc1cc(Cc2cnn(Cc3cn(-c4ccccc4)nn3)c2)c2nn[nH]c2n1 [Example 116, 7-((1-((1-Phenyl-1H-1,2,3-triazol-4-yl)methyl)-1H-pyrazol-4-yl)methyl)-3H-[1,2,3]triazolo[4,5-b]pyridin-5-amine]
- IC50 (myeloperoxidase (MPO) [1]): 1 to 100 nM
- IC50 (myeloperoxidase (MPO) [2]): 101 to 999 nM

Compound: CN1CCN(C(=O)c2ccc(Cn3cc(Cc4cc(N)nc5[nH]nnc45)cn3)cc2)CC1 [Example 85, 7-[(1-{[4-(4-Methylpiperazine-1-carbonyl)phenyl]methyl}-1H-pyrazol-4-yl)methyl]-3H-[1,2,3]triazolo[4,5-b]pyridin-5-amine]
- IC50 (myeloperoxidase (MPO) [1]): 1 to 100 nM
- IC50 (myeloperoxidase (MPO) [2]): 101 to 999 nM

Compound: Nc1cc(Cn2nnc3ccccc32)c2nn[nH]c2n1 [Example 160, 7-(1H-1,2,3-Benzotriazol-1-ylmethyl)-3H-[1,2,3]triazolo[4,5-b]pyridin-5-amine]
- IC50 (myeloperoxidase (MPO) [1]): 1 to 100 nM
- IC50 (myeloperoxidase (MPO) [2]): 1 to 100 nM

Compound: CC1CC(c2cccc(Cn3cc(Cc4cc(N)nc5[nH]nnc45)cn3)c2)CCN1 (centres unmarked) [Example 211, 7-[(1-{[3-(2-Methylpiperidin-4-yl)phenyl]methyl}-1H-pyrazol-4-yl)methyl]-3H-[1,2,3]triazolo[4,5-b]pyridin-5-amine]
- IC50 (myeloperoxidase (MPO) [1]): 1 to 100 nM
- IC50 (myeloperoxidase (MPO) [2]): 1 to 100 nM

Compound: Nc1cc(Cc2cnn(Cc3cccc(O[C@@H]4CCNC4)c3)c2)c2nn[nH]c2n1 [Example 239, 7-{[1-({3-[(3R)-Pyrrolidin-3-yloxy]phenyl}methyl)-1H-pyrazol-4-yl]methyl}-3H-[1,2,3]triazolo[4,5-b]pyridin-5-amine]
- IC50 (myeloperoxidase (MPO) [1]): 1 to 100 nM
- IC50 (myeloperoxidase (MPO) [2]): 1 to 100 nM

Compound: Nc1cc(Cc2cnn(Cc3ccc(C(=O)NCc4cn[nH]c4)cc3)c2)c2nn[nH]c2n1 [Example 79, 4-{[4-({5-Amino-3H-[1,2,3]triazolo[4,5-b]pyridin-7-yl}methyl)-1H-pyrazol-1-yl]methyl}-N-(1H-pyrazol-4-ylmethyl)benzamide]
- IC50 (myeloperoxidase (MPO) [1]): 1 to 100 nM
- IC50 (myeloperoxidase (MPO) [2]): 101 to 999 nM

Compound: Nc1cc(Cc2cnn(Cc3cccc(N4CCNC5(CCCCC5)C4)c3)c2)c2nn[nH]c2n1 [Example 223, 7-({1-[(3-{1,4-Diazaspiro[5.5]undecan-4-yl}phenyl)methyl]-1H-pyrazol-4-yl}methyl)-3H-[1,2,3]triazolo[4,5-b]pyridin-5-amine]
- IC50 (myeloperoxidase (MPO) [1]): 101 to 999 nM
- IC50 (myeloperoxidase (MPO) [2]): 1 to 100 nM

Compound: Cc1ccccc1Cn1cc(Cc2cc(N)nc3[nH]nnc23)cn1 [Example 43, 7-((1-(2-Methylbenzyl)-1H-pyrazol-4-yl)methyl)-3H-[1,2,3]triazolo[4,5-b]pyridin-5-amine]
- IC50 (myeloperoxidase (MPO) [1]): 1 to 100 nM
- IC50 (myeloperoxidase (MPO) [2]): 101 to 999 nM
